Several values for one entry are separate records, joined by “and”; a condition that tells them apart may be missing. Equal values may be shown once. Read-outs that look alike come from different tables or passages of the source.
Columns and labels:
[1] = Cytotoxicity assay (PrestoBlue), “F2” HAE; conditions: human
[2] = tested on: SARS-CoV-2 BZ/2021 (γ, lineage P.1); assay: microbe, parasite or virus in culture; format: cell-based; conditions: Severe acute respiratory syndrome coronavirus 2, Vero C1008; BZ/2021, VeroE6, mean n=3
[3] = tested on: SARS-CoV-2-Nluc (WA1/2020-nano luciferase); assay: microbe, parasite or virus in culture; format: cell-based; conditions: for A549-hACE2 SARS-CoV-2 Nluc (EC50 determination), normalized signal: replicate values of the experiments
[4] = Cytotoxicity assay (PrestoBlue), “M2” HAE; conditions: human, % cell viability, M2 HAE, 72 h
in vitro [5] = conditions: human
[6] = tested on: SARS-CoV-2 SA/2020 (β, lineage B.1.351); assay: microbe, parasite or virus in culture; format: cell-based; conditions: Severe acute respiratory syndrome coronavirus 2, Vero C1008; SA/2020, VeroE6, mean n=3
in vitro [7] = conditions: human; remark: listed apart in the source
[8] = tested on: SARS-CoV-2 gamma isolate (BZ/2021, lineage P.1); assay: microbe, parasite or virus in culture; format: cell-based; conditions: Severe acute respiratory syndrome coronavirus 2
[9] = Cytotoxicity assay (PrestoBlue), HCT-8; conditions: human, HCT-8 cells
[10] = Cytotoxicity assay (PrestoBlue), VeroE6; conditions: African green monkey, VeroE6 cells
VeroE6 cells = assay: Cytotoxicity assay (PrestoBlue), VeroE6; conditions: 72 h
[11] = tested on: SARS-CoV-2 WA1/2020 (lineage A); assay: microbe, parasite or virus in culture; format: cell-based; conditions: for Virus yield reduction: vehicle = 0
[12] = tested on: SARS-CoV-2 CA/2020 (α, lineage B.1.1.7); assay: microbe, parasite or virus in culture; format: cell-based
“M6” primary HAE cells = assay: Cytotoxicity assay (PrestoBlue), “M6” HAE; conditions: M6 HAE, 72 h
[13] = Cytotoxicity assay (PrestoBlue), “M6” HAE; conditions: human
[14] = design: method as in Mackman et al 2021 (JMC 2021, 64(8), 5001-5017); conditions: rats, ref Mackman et al 2021 (JMC 2021, 64(8), 5001-5017); cited from earlier work
in vitro [15] = conditions: human, % cell viability, HEp-2, 33.333 µM, 72 h
[16] = design: method as in Mackman et al 2021 (JMC 2021, 64(8), 5001-5017); conditions: cynomolgus macaques, ref Mackman et al 2021 (JMC 2021, 64(8), 5001-5017); cited from earlier work
[17] = tested on: well-differentiated primary human airway epithelium cultures; format: cell-based
[18] = Cytotoxicity assay (PrestoBlue), HEp-2; conditions: human, HEp-2 cells
[19] = tested on: SARS-CoV-2 (WA1/2020 and VOC α, β, γ); assay: microbe, parasite or virus in culture; format: cell-based; conditions: Severe acute respiratory syndrome coronavirus 2, Vero C1008; read-out: Half-maximal effective concentrations (EC50), range
“F3” primary HAE cells = assay: Cytotoxicity assay (PrestoBlue), “F3” HAE; conditions: 72 h; for % cell viability: F3 HAE
[20] = Cytotoxicity assay (PrestoBlue), “F3” HAE; conditions: human
[21] = cited from earlier work
in vitro [22] = conditions: human, % cell viability, 72 h

Compound `CC(C)C(=O)OCC1OC(C#N)(c2ccc3c(N)ncnn23)C(OC(=O)C(C)C)C1OC(=O)C(C)C` (stereo not shown) [GS-621763] has a viability at 72 h, 1.235 µM ([1]; female, % cell viability, F2 HAE, 1.235 µM) of 100%, a viability at 72 h, 3.704 µM ([1]; female, % cell viability, F2 HAE, 3.704 µM) of 117% and a viability at 72 h, 33.333 µM ([1]; female, % cell viability, F2 HAE, 33.333 µM) of 82%. For the same compound, the viability at 72 h, 0.046 µM ([1]; female, “F2” primary human airway epithelial (HAE) cells, % cell viability, F2 HAE, 0.046 µM) was 86%, the viability at 72 h, 100 µM ([1]; % cell viability, F2 HAE, 100 µM) was 1% and the CC50 at 72 h ([1]; CC50, “F2” HAE) was 43.8 µM. For the same compound, the EC50 [2] was 0.22 µM, the “A549-hACE2 SARS-CoV-2 Nluc (EC50 determination), normalized signal” value (from here on “A549-hACE2 SARS-CoV-2 Nluc … normalized signal”) ([3]; Conc 0.023 µM) was 100.31 and 91.27 and 105.35 and 111.17 and 106.25 and 121.34 and 128.97 and 56.85 and the “A549-hACE2 SARS-CoV-2 Nluc … normalized signal” value ([3]; Conc 0.069 µM) was 81.07 and 111.32 and 107.14 and 109.98 and 64.03 and 99.75 and 127.29 and 97.36. For the same compound, the “A549-hACE2 SARS-CoV-2 Nluc … normalized signal” value ([3]; Conc 0.206 µM) was 99.03 and 101.58 and 96.21 and 106.69 and 74.78 and 94.61 and 130.86 and 135.24, the “A549-hACE2 SARS-CoV-2 Nluc … normalized signal” value ([3]; Conc 0.617 µM) was 93.09 and 77.54 and 84.50 and 82.94 and 7.92 and 26.38 and 11.95 and 19.80 and the “A549-hACE2 SARS-CoV-2 Nluc … normalized signal” value ([3]; Conc 1.852 µM) was 11.60 and 8.15 and 9.31 and 12.89 and 0.89 and 0.94 and 1.04 and 0.76. For the same compound, the “A549-hACE2 SARS-CoV-2 Nluc … normalized signal” value ([3]; Conc 5.556 µM) was 0.61 and 1.05 and 0.64 and 0.93 and 0.44 (2×) and 0.49 and 0.36, the “A549-hACE2 SARS-CoV-2 Nluc … normalized signal” value ([3]; Conc 16.667 µM) was 0.46 and 0.65 and 0.58 and 0.40 and 0.32 (2×) and 0.31 and 0.28 and the “A549-hACE2 SARS-CoV-2 Nluc … normalized signal” value ([3]; Conc 50.000 µM) was 0.15 (3×) and 0.14 and 0.29 (2×) and 0.24 and 0.26. For the same compound, the EC50 ([3]; Severe acute respiratory syndrome coronavirus 2, WA1/2020-nano luciferase, A549-ACE2, mean ± SD) was 0.72 µM, the viability at 72 h, 100 µM ([4]; 100 µM) was 0% and the viability at 72 h, 1.235 µM ([4]; male, 1.235 µM) was 107%. The viability at 72 h, 3.704 µM ([4]; male, 3.704 µM) was 117%, the viability at 72 h, 33.333 µM ([4]; male, 33.333 µM) was 89% and the viability at 72 h, 0.046 µM (in vitro [5]; female, % cell viability) was 84%. It also gave a viability at 72 h, 3.704 µM (in vitro [5]; female, % cell viability) of 120%, a viability at 72 h, […] (in vitro [5]; female, % cell viability) of 95% and a viability at […] (in vitro [5]; female, % cell viability) of 101%. The viability at 1.235 µM (in vitro [5]; female, % cell viability, DF2 HAE, 1.235 µM, 72 h) was 103%, the viability at 3.704 µM (in vitro [5]; female, % cell viability, DF2 HAE, 3.704 µM, 72 h) was 116% and the viability at 33.333 µM (in vitro [5]; female, % cell viability, DF2 HAE, 33.333 µM, 72 h) was 112%. For the same compound, the CC50 at 72 h (in vitro [5]) was 86 µM, the viability at 72 h, 100 µM (in vitro [5]; % cell viability) was 4% and the EC50 [6] was 0.11 µM. It also gave a CC50 at 48 h (in vitro [7]) of over 47 µM, an EC50 [8] of 3.01 µM and a viability at 72 h, 0.046 µM ([9]; % cell viability, HCT-8, 0.046 µM, 72 h) of 78%. The viability at 72 h, 3.704 µM ([9]; % cell viability, HCT-8, 3.704 µM, 72 h) was 104%, the viability at 72 h, 33.333 µM ([9]; % cell viability, HCT-8, 33.333 µM, 72 h) was 99% and the viability at 72 h, 100 µM ([9]; % cell viability, HCT-8, 100 µM, 72 h) was 2%. It also gave a CC50 at 72 h ([9]; CC50, HCT-8, 72 h) of 74.6 µM, a CC50 at 72 h [10] of over 100 µM and a viability at 72 h, 0.046 µM ([10]; % cell viability, VeroE6, 0.046 µM, 72 h) of 62%. The viability at 72 h, 1.235 µM ([10]; % cell viability, VeroE6, 1.235 µM, 72 h) was 90%, the viability at 72 h, 3.704 µM ([10]; % cell viability, VeroE6, 3.704 µM, 72 h) was 95% and the viability at 72 h, 33.333 µM ([10]; % cell viability, VeroE6, 33.333 µM, 72 h) was 105%. The “% cell viability” value (VeroE6 cells; VeroE6, 0.046 µM, 0.046 µM) was 61% and 56%, the “% cell viability” value (VeroE6 cells; VeroE6, 1.235 µM, 1.235 µM) was 82% and the “% cell viability” value (VeroE6 cells; VeroE6, 3.704 µM, 3.704 µM) was 97%. The “% cell viability” value (VeroE6 cells; VeroE6, 33.333 µM, 33.333 µM) was 103%, the “% cell viability” value (VeroE6 cells; VeroE6, 100 µM, 100 µM) was -4% and -6% and -7% and the EC50 ([11]; Severe acute respiratory syndrome coronavirus 2, Vero C1008, WA1/2020, VeroE6, mean n=3) was 0.73 µM. For the same compound, the Virus yield reduction ([11]; WA1/2020, VeroE6, 0.617284 µM) was -0.1154, the Virus yield reduction ([11]; WA1/2020, VeroE6, 1.85185 µM) was -1.903 and the “reduction in titer in vitro (to the limit of detection)” value [12] was ~ 1 log. The EC50 ([12]; Severe acute respiratory syndrome coronavirus 2, Vero C1008, CA/2020, VeroE6, mean n=3) was 0.21 µM, the “% cell viability” value (“M6” primary HAE cells; 1.235 µM) was 96% and the “% cell viability” value (“M6” primary HAE cells; 3.704 µM) was 70% and 86%. For the same compound, the “% cell viability” value (“M6” primary HAE cells; 33.333 µM) was 99%, the “% cell viability” value (“M6” primary HAE cells; 100 µM) was 46% and 45% and the CC50 at 72 h [13] was 92.3 µM. The viability at 72 h, 100 µM ([13]; % cell viability, M6 HAE, 100 µM, 72 h) was 42%, the viability at 72 h, 1.235 µM ([13]; male, % cell viability, M6 HAE, 1.235 µM, 72 h) was 97% and the viability at 72 h, 33.333 µM ([13]; male, % cell viability, M6 HAE, 33.333 µM, 72 h) was 94%. The “oral F” value [14] was 57%, the viability at 72 h, 33.333 µM (in vitro [15]) was 112% and the “oral F” value [16] was 28%. For the same compound, the “basolateral drug concentration at which epithelium integrity (TEER) was fully preserved” value [17] was at least 3 µM, the viability at 72 h, 0.046 µM ([18]; % cell viability, HEp-2, 0.046 µM, 72 h) was 53% and the viability at 72 h, 1.235 µM ([18]; % cell viability, HEp-2, 1.235 µM, 72 h) was 95%. For the same compound, the viability at 72 h, 3.704 µM ([18]; % cell viability, HEp-2, 3.704 µM, 72 h) was 104%, the viability at 72 h, 33.333 µM ([18]; % cell viability, HEp-2, 33.333 µM, 72 h) was 111% and the CC50 at 72 h ([18]; CC50, HEp-2, 72 h) was 79.4 µM. For the same compound, the EC50 [19] was 0.11 to 0.73 µM, the “% cell viability” value (“F3” primary HAE cells; 0.046 µM) was 79% and the “% cell viability” value (“F3” primary HAE cells; 3.704 µM) was 115%. For the same compound, the “% cell viability” value (“F3” primary HAE cells; 33.333 µM) was 86%, the CC50 (“F3” primary HAE cells; “F3” HAE) was 43.8 µM and the viability at 72 h, 1.235 µM ([20]; female, % cell viability, F3 HAE, 1.235 µM) was 121%. The viability at 72 h, 3.704 µM ([20]; female, % cell viability, F3 HAE, 3.704 µM) was 111%, the viability at 72 h, 33.333 µM ([20]; female, % cell viability, F3 HAE, 33.333 µM) was 81% and the viability at 72 h, 0.046 µM ([20]; female, “F3” primary human airway epithelial (HAE) cells, % cell viability, F3 HAE, 0.046 µM) was 83%. For the same compound, the viability at 72 h, 100 µM ([20]; % cell viability, F3 HAE, 100 µM) was 1%, the CC50 at 72 h ([20]; CC50, “F3” HAE) was 43.8 µM and the “increase of oral F compared to GS-441524” value ([21]; rats and cynomolgus macaques, ref Mackman et al 2021) was “greater than 5 fold”. The “oral bioavailability (in words)” value ([21]; two relevant animal species including non-human primates) was “high oral bioavailability”, the viability at 72 h, 1.235 µM (in vitro [22]; HCT-8, 1.235 µM) was 115% and the viability at 72 h, 3.704 µM (in vitro [22]; HCT-8, 3.704 µM) was 114%. The viability at 72 h, 33.333 µM (in vitro [22]; HCT-8, 33.333 µM) was 106%.

Reference: article PMC8571282 (Nature Communications, 2021)
